Patent US20240391862A1, “(1,4,5-TRISUBSTITUTED-1H-PYRAZOL-3-YL)OXY-2-ALKOXY ALKYL ACIDS AND THEIR DERIVATIVES, THEIR SALTS AND THEIR USE AS HERBICIDAL AGENTS” (Bayer AKtiengesellschaft, priority 2021, published 2024)

Key:
[1] = test system: TRZAS; experiment: Post-emergence herbicidal effect and crop plant compatibility, greenhouse pot test; assay type: in vivo, Triticum aestivum; settings: Triticum aestivum, 504 h, 20 g/ha, one-leaf stage, rated visually after about 3 weeks vs untreated controls, read-out: Post-emergence effect at 20 g/ha against TRZAS in %
Summary of the method: (§1)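 Greenhouse pot test: weeds and crops sown in sandy loam, sprayed post-emergence at one-leaf stage (2–3 weeks after sowing) with WP or EC formulations plus 0.5% additive at 600 l/ha water, rates 20–320 g/ha. Visual rating about 3 weeks later versus untreated controls (100% = dead, 0% = as control).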

[2] = test system: BRSNW; assay type: in vivo, Brassica napus; settings: one-leaf stage, rated visually after about 3 weeks vs untreated controls
From the text: (§2) • ALOMY: Alopecurus myosuroides SETVI: Setaria viridis • AVEFA: Avena fatua POLCO: Fallopia convolvulus • AMARE: Amaranthus retroflexus ECHCG: Echinochloa crus-galli • LOLRJ: Lolium rigidum STEME: Stellaria media • VERPE: Veronica persica MATIN: Tripleurospermum inodorum • DIGSA: Digitaria sanguinalis ABUTH: Abutylon threophrasti • TRZAS: Triticum aestivum VIOTR: Viola tricolor • BRSNW: Brassica napus ZEAMX: Zea mays • PHBPU: Ipomoea purpurea GLXMA: Glycine max • ORYSA: Oryza sativa HORMU: Hordeum murinum
Seeds of monocotyledonous and dicotyledonous weeds and crop plants are placed in sandy loam in plastic or organic planting pots, covered with soil and cultivated in a greenhouse under controlled growth conditions. 2 to 3 weeks after sowing, the trial plants are treated at the one-leaf stage. The compounds of the invention, formulated in the form of wettable powders (WP) or as emulsion concentrates (EC), are then sprayed onto the green parts of the plants as aqueous suspension or emulsion with addition of 0.5% additive at a water application rate of 600 l/ha (converted). After the test plants have been kept in the greenhouse under optimum growth conditions for about 3 weeks, the activity of the preparations is rated visually in comparison to untreated controls. For example, 100% activity=the plants have died, 0% activity=like control plants.
Tables 20a to 38c below show the effects/crop compatibilities of selected compounds of the general formula (I) on various harmful plants at an application rate corresponding to 20 to 320 g/ha, which were obtained by the trial procedure specified above.

[3] = test system: ZEAMX; experiment: Post-emergence herbicidal effect and crop plant compatibility, greenhouse pot test; assay type: in vivo, Zea mays; settings: Zea mays, 504 h, one-leaf stage, rated visually after about 3 weeks vs untreated controls
Summary of the method: as §1

[4] = test system: AVEFA; experiment: Pre-emergence herbicidal effect, greenhouse pot test; assay type: in vivo, Avena fatua; settings: scored visually after about 3 weeks vs untreated controls
From the text: (§3) Seeds of monocotyledonous and dicotyledonous weed plants and crop plants are placed in plastic or organic planting pots and covered with soil. The compounds of the invention, formulated in the form of wettable powders (WP) or as emulsion concentrates (EC), are then applied to the surface of the covering soil as aqueous suspension or emulsion with addition of 0.5% additive at a water application rate equivalent to 600 l/ha. After the treatment, the pots are placed in a greenhouse and kept under good growth conditions for the trial plants. After about 3 weeks, the effect of the preparations is scored visually in comparison with untreated controls as percentages. For example, 100% activity=the plants have died, 0% activity=like control plants.
(§4) Tables 1a to 19c below show the effects/crop compatibilities of selected compounds of the general formula (I) on various harmful plants at an application rate corresponding to 20 to 320 g/ha, which were obtained by the trial procedure specified above.
as §2

[5] = test system: SETVI; experiment: as above; assay type: in vivo, Setaria viridis; settings: scored visually after about 3 weeks vs untreated controls
From the text: as §3, §4, §2

[6] = test system: ZEAMX; experiment: Pre-emergence herbicidal effect and crop plant compatibility, greenhouse pot test; assay type: in vivo, Zea mays; settings: 20 g/ha, scored visually after about 3 weeks vs untreated controls
From the text: as §3, §4, §2

[7] = test system: VIOTR; experiment: Pre-emergence herbicidal effect, greenhouse pot test; assay type: in vivo, Viola tricolor; settings: scored visually after about 3 weeks vs untreated controls
From the text: as §3, §4, §2

[8] = test system: LOLRI; experiment: as above; assay type: in vivo, Lolium rigidum; settings: scored visually after about 3 weeks vs untreated controls
From the text: as §3, §4, §2

[9] = test system: KCHSC; experiment: as above; assay type: in vivo; settings: scored visually after about 3 weeks vs untreated controls
From the text: as §3, with “control plants. Tables 1a to 19c below show the effects/crop compatibilities of selected compounds of the general formula (I) on various harmful plants at an application rate corresponding to 20 to 320 g/ha, which were obtained by the trial procedure specified above.” for “control plants.”

[10] = test system: MATIN; experiment: as above; assay type: in vivo, Tripleurospermum inodorum; settings: scored visually after about 3 weeks vs untreated controls
From the text: as §3, §4, §2

[11] = test system: POLCO; experiment: as above; assay type: in vivo, Fallopia convolvulus; settings: scored visually after about 3 weeks vs untreated controls
From the text: as §3, §4, §2

[12] = test system: ABUTH; experiment: as above; assay type: in vivo, Abutilon theophrasti; settings: scored visually after about 3 weeks vs untreated controls
From the text: as §3, §4, §2

[13] = test system: PHBPU; experiment: as above; assay type: in vivo, Ipomoea purpurea; settings: scored visually after about 3 weeks vs untreated controls
From the text: as §3, §4, §2

[14] = test system: AMARE; experiment: as above; assay type: in vivo, Amaranthus retroflexus; settings: scored visually after about 3 weeks vs untreated controls
From the text: as §3, §4, §2

[15] = test system: ALOMY; experiment: as above; assay type: in vivo, Alopecurus myosuroides; settings: scored visually after about 3 weeks vs untreated controls
From the text: as §3, §4, §2

[16] = test system: ECHCG; experiment: as above; assay type: in vivo, Echinochloa crus-galli; settings: scored visually after about 3 weeks vs untreated controls
From the text: as §3, §4, §2

[17] = test system: DIGSA; experiment: as above; assay type: in vivo, Digitaria sanguinalis; settings: scored visually after about 3 weeks vs untreated controls
From the text: as §3, §4, §2

[18] = test system: VERPE; experiment: as above; assay type: in vivo, Veronica persica; settings: scored visually after about 3 weeks vs untreated controls
From the text: as §3, §4, §2

CCOC(Oc1nn(-c2ccccc2F)c(-c2ccc(F)nc2)c1Br)C(=O)O (single isomer, unassigned) [Example I-65, (2R*)-{[4-Bromo-1-(2-fluorophenyl)-5-(6-fluoropyridin-3-yl)-1H-pyrazol-3-yl]oxy}(ethoxy)acetic acid]
0%: percent crop injury (phytotoxicity) to wheat, post-emergence at 20 g/ha [1] | Post-emergence effect at 320 g/ha against BRSNW in % [2] | plant injury at 20 g/ha ([3]; 20 g/ha, read-out: Post-emergence effect at 20 g/ha against ZEAMX in %) | plant injury at 80 g/ha ([3]; 80 g/ha, read-out: Post-emergence effect at 80 g/ha against ZEAMX in %) | plant injury at 320 g/ha ([3]; 320 g/ha, read-out: Post-emergence effect at 320 g/ha against ZEAMX in %)

COC(=O)CCOC(=O)C(OC)Oc1nn(-c2ncccc2F)c(-c2cncc(F)c2)c1C1CC1 (single isomer, unassigned) [Example I-76]
100%: Pre-emergence effect at 320 g/ha against AVEFA in % [4] | Pre-emergence effect at 320 g/ha against SETVI in % ([5]; 320 g/ha) | Pre-emergence effect at 80 g/ha against VIOTR in % [7] | Pre-emergence effect at 320 g/ha against VIOTR in % [7] | Pre-emergence effect at 320 g/ha against LOLRI in % [8] | Pre-emergence effect at 320 g/ha against KCHSC in % ([9]; 320 g/ha) | Pre-emergence effect at 80 g/ha against AMARE in % [14] | Pre-emergence effect at 320 g/ha against AMARE in % ([14]; 320 g/ha) | Pre-emergence effect at 320 g/ha against ECHCG in % ([16]; 320 g/ha)
90%: Pre-emergence effect at 80 g/ha against AVEFA in % [4] | Pre-emergence effect at 80 g/ha against SETVI in % ([5]; 80 g/ha) | Pre-emergence effect at 80 g/ha against LOLRI in % ([8]; 80 g/ha) | Pre-emergence effect at 20 g/ha against KCHSC in % ([9]; 20 g/ha) | Pre-emergence effect at 80 g/ha against KCHSC in % ([9]; 80 g/ha) | Pre-emergence effect at 320 g/ha against MATIN in % ([10]; 320 g/ha) | Pre-emergence effect at 80 g/ha against POLCO in % [11] | Pre-emergence effect at 320 g/ha against POLCO in % ([11]; 320 g/ha) | Pre-emergence effect at 80 g/ha against ABUTH in % ([12]; 80 g/ha) | Pre-emergence effect at 320 g/ha against ABUTH in % [12] | Pre-emergence effect at 320 g/ha against PHBPU in % [13] | Pre-emergence effect at 80 g/ha against ALOMY in % ([15]; 80 g/ha) | Pre-emergence effect at 320 g/ha against ALOMY in % [15] | Pre-emergence effect at 80 g/ha against ECHCG in % [16] | Pre-emergence effect at 320 g/ha against DIGSA in % [17]
20%: Pre-emergence effect at 20 g/ha against ZEAMX in % [6]
80%: Pre-emergence effect at 20 g/ha against AMARE in % [14] | Pre-emergence effect at 80 g/ha against DIGSA in % ([17]; 80 g/ha)

COC(=O)C(OC)Oc1nn(-c2cc(F)ccc2F)c(-c2cncc(F)c2)c1C1CC1 (stereo not drawn) [Example I-31, Methyl {[4-cyclopropyl-1-(2,5-difluorophenyl)-5-(5-fluoropyridin-3-yl)-1H-pyrazol-3-yl]oxy}(methoxy)acetate]
100%: Pre-emergence effect at 80 g/ha against VIOTR in % [7] | Pre-emergence effect at 320 g/ha against VIOTR in % [7] | Pre-emergence effect at 320 g/ha against LOLRI in % [8] | pest or weed control at 320 g/ha ([10]; Tripleurospermum inodorum, 504 h, 320 g/ha, read-out: Pre-emergence effect at 320 g/ha against MATIN in %) | Pre-emergence effect at 80 g/ha against POLCO in % [11] | pest or weed control at 320 g/ha ([11]; Fallopia convolvulus, 504 h, 320 g/ha, read-out: Pre-emergence effect at 320 g/ha against POLCO in %) | Pre-emergence effect at 80 g/ha against AMARE in % [14] | pest or weed control at 320 g/ha ([14]; Amaranthus retroflexus, 504 h, 320 g/ha, read-out: Pre-emergence effect at 320 g/ha against AMARE in %) | Pre-emergence effect at 320 g/ha against ALOMY in % [15] | pest or weed control at 320 g/ha ([16]; Echinochloa crus-galli, 504 h, 320 g/ha, read-out: Pre-emergence effect at 320 g/ha against ECHCG in %)
80%: Pre-emergence effect at 20 g/ha against POLCO in % ([11]; 20 g/ha) | Pre-emergence effect at 320 g/ha against ABUTH in % [12] | Pre-emergence effect at 20 g/ha against AMARE in % [14]
90%: Pre-emergence effect at 80 g/ha against AVEFA in % [4] | Pre-emergence effect at 320 g/ha against AVEFA in % [4] | pest or weed control at 320 g/ha ([5]; Setaria viridis, 504 h, 320 g/ha, read-out: Pre-emergence effect at 320 g/ha against SETVI in %) | Pre-emergence effect at 320 g/ha against VERPE in % [18] | Pre-emergence effect at 80 g/ha against MATIN in % ([10]; 80 g/ha) | Pre-emergence effect at 80 g/ha against PHBPU in % ([13]; 80 g/ha) | Pre-emergence effect at 320 g/ha against PHBPU in % [13] | Pre-emergence effect at 80 g/ha against ECHCG in % [16] | Pre-emergence effect at 320 g/ha against DIGSA in % [17]
